Converted amounts (≈) assume the structure as drawn. Like-named read-outs stand apart in the source and are kept apart here.
What was measured:
[1] = for Hygroscopicity: storage at ambient and humidity (40 C, 85-95% RH) conditions; for Hygroscopicity (85-95%): summary table, 85-95% RH, result in words
[2] = for hygroscopicity (classification from DVS): 15 to 95% RH, result in words; for hygroscopicity (classification from DVS) / Δ %weight 24 h: DVS; for Δ %weight 24 h: humidity increased stepwise from 15 to 95% RH at constant temperature; for Hygroscopicity (85-95%): summary table, same figures as Δ %weight 24 h of Table 1
Experimental: The objective was to measure the hygroscopicity of some crystalline forms of the present invention. The percentage increase of mass was calculated in order to evaluate the adsorption of water in the samples.
Dynamic Vapour Sorption (DVS) analysis is a technique specifically designed to provide information related to material response to changes in relative humidity and T°C. A Q5000 SA DVS equipment from TA Instruments was used for running the experiment.
The variation of the weight is controlled and the following percentage is calculated: Δ %weight = (Pn-P1)/P1 x 100 [formula] wherein: P1 is the initial weight , Pn is the weight measured for the sample.

[3] = pH 7.4; free form; cited from earlier work

SMILES: CC(C)C[C@H](CN)CC(=O)O.Cl.O=C(O)[C@@H]1CCCN1 [Example 6, (S)-Pregabalin - L-proline - HCl (1:1:1)]
- Hygroscopicity [1]: hygroscopic tendencies, particularly at humid conditions, to such an extent that it liquefied
- hygroscopicity (classification from DVS) [2]: deliquescent
- hygroscopicity (classification from DVS) ([2]; listed as sample 1): sufficient water was absorbed to form a liquid
- Δ %weight 24 h [2]: 95%
- Hygroscopicity (85-95%) [2]: 95%

SMILES: CC(C)C[C@H](CN)CC(=O)O.CC(C)C[C@H](CN)CC(=O)O.O.O=C(O)/C=C\C(=O)O.O=C(O)/C=C\C(=O)O [Example 7, (S)-Pregabalin - maleic acid - H2O (1:1:0.5)]
- hygroscopicity (classification from DVS) [2]: very hygroscopic
- Δ %weight 24 h [2]: 37,9%
- Hygroscopicity (85-95%) [2]: 37.9%

SMILES: CC(C)C[C@H](CN)CC(=O)O.CCCCCCCCCCCC(=O)O [Example 11, (S)-Pregabalin - lauric acid (1:1)]
- Hygroscopicity [1]: non-hygroscopic
- Hygroscopicity (85-95%) [1]: Non-hygroscopic
- hygroscopicity (classification from DVS) [2]: not hygroscopic
- Δ %weight 24 h [2]: 0%

SMILES: CC(C)C[C@H](CN)CC(=O)O [PGB free base, (S)-3-(aminomethyl)-5-methylhexanoic acid, reference compound]
- solubility in water [3]: 32 mg/mL (≈ 201 mM)
- Hygroscopicity (85-95%) [1]: Non-hygroscopic
